Results: the OligoGym collection
“And” between values parts separate entries of the source, which are not always exact repeats. Equal entries are not always repeated. After the bases stand the sugars from the 5' end (letter, count) and the backbone: PS all phosphorothioate, else s phosphorothioate and o phosphodiester by linkage. Methylation of C is not given here. e = 2'-O-(2-methoxyethyl) (MOE); k = constrained ethyl (cEt); d = 2'-deoxy (DNA)

Target: SOD1
Conditions: ASO

Question: Which target mRNA inhibition (HepG2, 5 µM) does the source give for “TACCCATCTGTGATTTA (sugars e2 k2 d9 k2 e2, PS)” here?
Answer: The target mRNA inhibition was 45%.

Question: “TAGCAGGATAACAGATG (sugars e3 k2 d7 k2 e3, PS)” was tested. Which target mRNA inhibition (HepG2, 3 µM) did it give?
Answer: The target mRNA inhibition was 34%.

Question: Which target mRNA inhibition (HepG2, 5 µM) does the source give for “TAGCCTCATAATAAGTG (sugars e2 k2 d8 k2 e3, PS)” here?
Answer: The target mRNA inhibition was 11%.

Question: For “TATTGGGCGATCCCAAT (sugars e3 k2 d7 k2 e3, PS)”, which target mRNA inhibition (HepG2, 3 µM) is on record?
Answer: Its target mRNA inhibition is 3%.

Question: For “TCACACAATTACACTTT (sugars e2 k2 d8 k2 e3, PS)”, which target mRNA inhibition (HepG2, 5 µM) is on record?
Answer: The target mRNA inhibition was 28%.

Question: For “TCAGACTACATCCAAGG (sugars e3 k2 d7 k2 e3, PS)”, which target mRNA inhibition (HepG2, 0.1875 µM) is on record?
Answer: The target mRNA inhibition was 19%.

Question: What about the target mRNA inhibition (HepG2, 0.75 µM) of the same sequence?
Answer: The target mRNA inhibition was 51%.

Question: What about the target mRNA inhibition (HepG2, 3 µM) of the same sequence?
Answer: The target mRNA inhibition was 57% and 74%.

Question: And the target mRNA inhibition (HepG2, 12 µM)?
Answer: The target mRNA inhibition was 85%.

Question: What does the source list for “TCAGCACGCACACGGCCTTC (sugars e5 d10 e5, PS)”?
Answer: target mRNA inhibition (HepG2, 0.1875 µM): 6%; target mRNA inhibition (HepG2, 0.75 µM): 12%; target mRNA inhibition (HepG2, 3 µM): 51%; target mRNA inhibition (HepG2, 4 µM): 52%; target mRNA inhibition (HepG2, 12 µM): 88%

Question: What does the source list for “TCAGGATACATTTCTACAGC (sugars e5 d10 e5, linkages s1 o3 s11 o3 s1)”?
Answer: target mRNA inhibition (A431, 0.12 µM): 9%; target mRNA inhibition (A431, 0.6 µM): 8%; target mRNA inhibition (A431, 3 µM): 21%; target mRNA inhibition (A431, 15 µM): 49%; target mRNA inhibition (HepG2, 0.222 µM): 25%; target mRNA inhibition (HepG2, 0.667 µM): 50%; target mRNA inhibition (HepG2, 2 µM): 92%; target mRNA inhibition (HepG2, 6 µM): 73%

Question: “TCATGAACATGGAATCCATG (sugars e5 d10 e5, PS)” was tested. Which target mRNA inhibition (HepG2, 5 µM) did it give?
Answer: Its target mRNA inhibition is 24% and 19%.

Question: “TCCCCACACCTTCACT (sugars ekddddddddekekee, linkages s1 o1 s8 o3 s2)” was tested. Which target mRNA inhibition (A431, 0.12 µM) did it give?
Answer: The target mRNA inhibition was 0%.

Question: And the target mRNA inhibition (A431, 0.6 µM)?
Answer: Its target mRNA inhibition is 0%.

Question: And the target mRNA inhibition (A431, 3 µM)?
Answer: The target mRNA inhibition was 7%.

Question: And the target mRNA inhibition (A431, 15 µM)?
Answer: The target mRNA inhibition was 21%.

Question: And the target mRNA inhibition (HepG2, 0.222 µM)?
Answer: The target mRNA inhibition was 16%.

Question: And the target mRNA inhibition (HepG2, 0.667 µM)?
Answer: Its target mRNA inhibition is 34%.

Question: What about the target mRNA inhibition (HepG2, 2 µM) of the same sequence?
Answer: Its target mRNA inhibition is 58%.

Question: And the target mRNA inhibition (HepG2, 6 µM)?
Answer: Its target mRNA inhibition is 80%.

Question: How did the target mRNA inhibition (A431, 0.12 µM) turn out when “TCCCCACACCTTCACT (sugars kekeddddddddekek, linkages s1 o3 s8 o1 s2)” was run?
Answer: The target mRNA inhibition was 3%.

Question: What about the target mRNA inhibition (A431, 0.6 µM) of the same sequence?
Answer: The target mRNA inhibition was 44%.

Question: What about the target mRNA inhibition (A431, 3 µM) of the same sequence?
Answer: The target mRNA inhibition was 2%.

Question: What about the target mRNA inhibition (A431, 15 µM) of the same sequence?
Answer: The target mRNA inhibition was 8%.

Question: And the target mRNA inhibition (HepG2, 0.222 µM)?
Answer: Its target mRNA inhibition is 19%.

Question: And the target mRNA inhibition (HepG2, 0.667 µM)?
Answer: The target mRNA inhibition was 9%.

Question: And the target mRNA inhibition (HepG2, 2 µM)?
Answer: Its target mRNA inhibition is 31%.

Question: And the target mRNA inhibition (HepG2, 6 µM)?
Answer: Its target mRNA inhibition is 61%.

Question: For “TCCTGGTTCCGAGGACTGCA (sugars e5 d10 e5, PS)”, which target mRNA inhibition (HepG2, 4 µM) is on record?
Answer: Its target mRNA inhibition is 24%.

Question: With “TCGCCCTTCAGCACGCA (sugars e2 k2 d8 k2 e3, PS)” as the sequence, how does the target mRNA inhibition (HepG2, 4 µM) read?
Answer: The target mRNA inhibition was 56% and 55%.

Question: And the target mRNA inhibition (HepG2, 5 µM)?
Answer: Its target mRNA inhibition is 53% and 64%.

Question: And the target mRNA inhibition (HepG2, 12 µM)?
Answer: The target mRNA inhibition was 71%.

Question: How did the target mRNA inhibition (HepG2, 5 µM) turn out when “TCGGCCACACCATCTTTGTC (sugars e5 d10 e5, PS)” was run?
Answer: The target mRNA inhibition was 32% and 28%.

Question: With “TCTGAAAAAGTCACACAATT (sugars e5 d10 e5, PS)” as the sequence, how does the target mRNA inhibition (HepG2, 5 µM) read?
Answer: The target mRNA inhibition was 5%.

Question: For “TCTGCTCGAAATTGATGATG (sugars e5 d10 e5, PS)”, which target mRNA inhibition (HepG2, 4 µM) is on record?
Answer: The target mRNA inhibition was 14%.

Question: How did the target mRNA inhibition (HepG2, 3 µM) turn out when “TCTGGCAAAATACAGGT (sugars e3 k2 d7 k2 e3, PS)” was run?
Answer: Its target mRNA inhibition is 0%.

Question: Which target mRNA inhibition (HepG2, 5 µM) does the source give for “TCTGTGATTTAAGTCTG (sugars e2 k2 d8 k2 e3, PS)” here?
Answer: Its target mRNA inhibition is 49%.

Question: Which target mRNA inhibition (HepG2, 5 µM) does the source give for “TGAAAAAGTCACACAATTAC (sugars e5 d10 e5, PS)” here?
Answer: Its target mRNA inhibition is 0%.

Question: For “TGAGAGTGAGATCACAGAAT (sugars e5 d10 e5, PS)”, which target mRNA inhibition (HepG2, 5 µM) is on record?
Answer: The target mRNA inhibition was 18%.

Question: “TGATTTAAGTCTGGCAA (sugars e2 k2 d9 k2 e2, PS)” was tested. Which target mRNA inhibition (HepG2, 5 µM) did it give?
Answer: Its target mRNA inhibition is 52%.

Question: Which target mRNA inhibition (HepG2, 4 µM) does the source give for “TGCTCGAAATTGATGATGCC (sugars e5 d10 e5, PS)” here?
Answer: Its target mRNA inhibition is 20%.

Question: For “TGCTTCCCCACACCTTC (sugars e3 k2 d7 k2 e3, PS)”, which target mRNA inhibition (HepG2, 3 µM) is on record?
Answer: Its target mRNA inhibition is 43%.

Question: Which target mRNA inhibition (HepG2, 3 µM) does the source give for “TGGATAGAGGATTAAAG (sugars e3 k2 d7 k2 e3, PS)” here?
Answer: The target mRNA inhibition was 23%.

Question: How did the target mRNA inhibition (HepG2, 4 µM) turn out when “TGGGCCGTCGCCCTTCAGCA (sugars e5 d10 e5, PS)” was run?
Answer: The target mRNA inhibition was 12%.

Question: Which target mRNA inhibition (HepG2, 4 µM) does the source give for “TGGGCGATCCCAATTAC (sugars e2 k2 d9 k2 e2, PS)” here?
Answer: Its target mRNA inhibition is 46%.

Question: “TGTCAGCAGTCACATTGCCC (sugars e5 d10 e5, PS)” was tested. Which target mRNA inhibition (HepG2, 5 µM) did it give?
Answer: The target mRNA inhibition was 55% and 49%.
